Patent publication US20180000085A1, “USE OF PICOLINAMIDE COMPOUNDS WITH FUNGICIDAL ACTIVITY” (DOW AGROSCIENCES LLC, priority 2014, published 2018)

Tests used:
Zymoseptoria tritici = test: Leaf blotch of wheat (SEPTTR) disease control on wheat seedlings; format: in vivo; set-up: key to SEPTTR 1DP, HV activity at 100 ppm (% control rating) / SEPTTR 3DC, HV activity at 100 ppm (% control rating) / SEPTTR disease control, 1DP / SEPTTR disease control, 3DC / SEPTTR 1DP disease control rating, HV activity / SEPTTR 3DC disease control rating, HV activity / SEPTTR 3DC, LV activity at 125.1 g/H (% Control rating) / SEPTTR 1DP, LV activity at 125.1 g/H (% Control rating) / SEPTTR 1DP disease control rating, LV activity at 125.1 g/H / SEPTTR 3DC disease control rating, LV activity at 125.1 g/H / SEPTTR 3DC disease control rating, HV activity at 100 ppm / SEPTTR 1DP disease control rating, HV activity at 100 ppm / HV activity at 100 ppm SEPTTR 3DC (disease control rating) / HV activity at 100 ppm SEPTTR 1DP (disease control rating) / LV activity at 125.1 g/H SEPTTR 1DP (disease control rating) / LV activity at 125.1 g/H SEPTTR 3DC (disease control rating): A: > 80; B: ≤ 80; C: Not Tested; D: No Activity Observed in the Reported Assay; details: for SEPTTR 1DP disease control rating, HV activity / SEPTTR 3DC disease control rating, HV activity: HV application at 100 ppm
Experimental: (§1) All fungicides were evaluated using the aforementioned method for their activity vs. all target diseases, unless stated otherwise. Wheat leaf blotch and brown rust activity were also evaluated using track spray applications, in which case the fungicides were formulated as EC formulations, containing 0.1% Trycol 5941 in the spray solutions. Wheat plants (variety Yuma) were grown from seed in a greenhouse in 50% mineral soil/50% soil-less Metro mix until the first leaf was fully emerged, with 7-10 seedlings per pot. These plants were inoculated with an aqueous spore suspension of Zymoseptoria tritici either prior to or after fungicide treatments. After inoculation the plants were kept in 100% relative humidity (one day in a dark dew chamber followed by two to three days in a lighted dew chamber at 20° C.) to permit spores to germinate and infect the leaf. The plants were then transferred to a greenhouse set at 20° C. for disease to develop. When disease symptoms were fully expressed on the 1st leaves of untreated plants, infection levels were assessed on a scale of 0 to 100 percent disease severity. Percent disease control was calculated using the ratio of disease severity on treated plants relative to untreated plants.

Puccinia triticina = test: Wheat brown rust (PUCCRT) disease control on wheat seedlings; format: in vivo; set-up: key to PUCCRT 3DC, HV activity at 100 ppm (% control rating) / PUCCRT disease control, 3DC / PUCCRT 1DP disease control rating, HV activity / PUCCRT 3DC disease control rating, HV activity / PUCCRT 3DC, LV activity at 125.1 g/H (% Control rating) / PUCCRT 1DP, LV activity at 125.1 g/H (% Control rating) / PUCCRT 3DC disease control rating, LV activity at 125.1 g/H / PUCCRT 1DP disease control rating, LV activity at 125.1 g/H / PUCCRT 3DC disease control rating, HV activity at 100 ppm / PUCCRT 1DP disease control rating, HV activity at 100 ppm / HV activity at 100 ppm PUCCRT 3DC (disease control rating) / LV activity at 125.1 g/H PUCCRT 1DP (disease control rating) / LV activity at 125.1 g/H PUCCRT 3DC (disease control rating): A: > 80; B: ≤ 80; C: Not Tested; D: No Activity Observed in the Reported Assay; details: for PUCCRT 1DP disease control rating, HV activity / PUCCRT 3DC disease control rating, HV activity: HV application at 100 ppm
Experimental: as §1, with “plants. Example B: Evaluation of Fungicidal Activity: Wheat Brown Rust (Puccinia triticina; Synonym: Puccinia recondita f. sp. Tritici; Bayer Code PUCCRT) Wheat plants (variety Yuma) were grown from seed in a greenhouse in 50% mineral soil/50% soil-less Metro mix until the first leaf was fully emerged, with 7-10 seedlings per pot. These plants were inoculated with an aqueous spore suspension of Puccinia triticina either prior to or after fungicide treatments. […] The plants were then transferred to a greenhouse set at 24° C. for disease to develop. Fungicide formulation, application and disease assessment followed the procedures as described in the Example A.” for “plants.”

[1] = low volume application, 125.1 g/H, 1 Day Protectant
[2] = low volume application, 125.1 g/H, 3 Day Curative
[3] = 1 Day Protectant, wheat leaf blotch
[4] = 3 Day Curative, wheat leaf blotch
[5] = 1 Day Protectant, wheat brown rust
[6] = 3 Day Curative, wheat brown rust
[7] = low volume application, 125.1 g/H, 1 day protectant
[8] = low volume application, 125.1 g/H, 3 day curative

With `COc1ccnc(C(=O)NC(C)C(=O)OC(C)COC(=O)C(C)C)c1OC(C)=O` (centres unmarked) [Cmpd 532] the “SEPTTR 1DP, LV activity at 125.1 g/H (% Control rating)” value (from here on “SEPTTR 1DP … (% Control rating)”) (Zymoseptoria tritici; [1]) was “B (≤ 80)”, the “SEPTTR 3DC, LV activity at 125.1 g/H (% Control rating)” value (“SEPTTR 3DC … (% Control rating)” below) (Zymoseptoria tritici; [2]) was “A (> 80)” and the “PUCCRT 1DP, LV activity at 125.1 g/H (% Control rating)” value (shortened to “PUCCRT 1DP … (% Control rating)”) (Puccinia triticina; [1]) was “D”. For the same compound, the “PUCCRT 3DC, LV activity at 125.1 g/H (% Control rating)” value (“PUCCRT 3DC … (% Control rating)” for short) (Puccinia triticina; [2]) was “D”.
For `C=C[C@H](C)[C@@H](Oc1ccccc1)[C@H](C)OC(=O)[C@H](C)NC(=O)c1nccc(OC)c1O` [Cmpd 415], the “SEPTTR 1DP disease control rating, HV activity” value (Zymoseptoria tritici; [3]) was “A (> 80)”, the “SEPTTR 3DC disease control rating, HV activity” value (Zymoseptoria tritici; [4]) was “A (> 80)” and the “PUCCRT 1DP disease control rating, HV activity” value (Puccinia triticina; [5]) was “A (> 80)”. The “PUCCRT 3DC disease control rating, HV activity” value (Puccinia triticina; [6]) was “A (> 80)”.
`CCC(CC)C(Oc1cccc(F)c1)C(C)OC(=O)C(CC(C)C)NC(=O)c1nccc(OC)c1OC(C)=O` (centres unmarked) [Cmpd 685] was tested, and the “SEPTTR 1DP disease control rating, LV activity at 125.1 g/H” value (Zymoseptoria tritici; [7]) was “D”, the “SEPTTR 3DC disease control rating, LV activity at 125.1 g/H” value (Zymoseptoria tritici; [8]) was “B (≤ 80)” and the “PUCCRT 1DP disease control rating, LV activity at 125.1 g/H” value (Puccinia triticina; [7]) was “B (≤ 80)”. The “PUCCRT 3DC disease control rating, LV activity at 125.1 g/H” value (Puccinia triticina; [8]) was “D”.
With `COc1ccnc(C(=O)NC(C)C(=O)OC(C)COC(=O)C(C)C)c1OCOC(=O)C(C)C` (centres unmarked) [Cmpd 531] the “SEPTTR 1DP … (% Control rating)” value (Zymoseptoria tritici; [1]) was “D”, the “SEPTTR 3DC … (% Control rating)” value (Zymoseptoria tritici; [2]) was “B (≤ 80)” and the “PUCCRT 1DP … (% Control rating)” value (Puccinia triticina; [1]) was “D”. The “PUCCRT 3DC … (% Control rating)” value (Puccinia triticina; [2]) was “D”.
`COc1ccnc(C(=O)N[C@@H](C)C(=O)O[C@@H](C)[C@@H](CC(C)C)Oc2cc(F)ccc2F)c1O` [Cmpd 1049] was tested, and the “HV activity at 100 ppm SEPTTR 1DP (disease control rating)” value (Zymoseptoria tritici; HV application, 100 ppm, 1 Day Protectant, wheat leaf blotch) was “A (> 80)”, the “HV activity at 100 ppm SEPTTR 3DC (disease control rating)” value (Zymoseptoria tritici; HV application, 100 ppm, 3 Day Curative, wheat leaf blotch) was “B (≤ 80)” and the “HV activity at 100 ppm PUCCRT 1DP (disease control rating)” value (Puccinia triticina; HV application, 100 ppm, 1 Day Protectant, wheat brown rust) was “A (> 80)”. The “HV activity at 100 ppm PUCCRT 3DC (disease control rating)” value (Puccinia triticina; HV application, 100 ppm, 3 Day Curative, wheat brown rust) was “A (> 80)”.
In the case of `CCCO[C@@H]([C@H](C)OC(=O)[C@H](C)NC(=O)c1nccc(OC)c1OCOC(=O)COCC)[C@H](CC)Oc1ccccc1` [Cmpd 512, (S)-(2S,3S,4S)-4-phenoxy-3-propoxyhexan-2-yl-2-(3-((2-ethoxyacetoxy)methoxy)-4-methoxypicolinamido)propanoate], the “SEPTTR 1DP … (% Control rating)” value (Zymoseptoria tritici; [1]) is reported as “B (≤ 80)”, the “SEPTTR 3DC … (% Control rating)” value (Zymoseptoria tritici; [2]) is reported as “A (> 80)” and the “PUCCRT 1DP … (% Control rating)” value (Puccinia triticina; [1]) is reported as “A (> 80)”. For the same compound, the “PUCCRT 3DC … (% Control rating)” value (Puccinia triticina; [2]) was “A (> 80)”.
`CCOc1ccnc(C(=O)NC(C)C(=O)OC(C)C(CC(C)C)Oc2ccc(C)cc2Cl)c1OC(C)=O` (centres unmarked) [Cmpd 1098] was tested, and the “LV activity at 125.1 g/H SEPTTR 1DP (disease control rating)” value (Zymoseptoria tritici; low volume application, 125.1 g/H, 1 Day Protectant, wheat leaf blotch) was “D”, the “LV activity at 125.1 g/H SEPTTR 3DC (disease control rating)” value (Zymoseptoria tritici; low volume application, 125.1 g/H, 3 Day Curative, wheat leaf blotch) was “D” and the “LV activity at 125.1 g/H PUCCRT 1DP (disease control rating)” value (Puccinia triticina; low volume application, 125.1 g/H, 1 Day Protectant, wheat brown rust) was “D”. For the same compound, the “LV activity at 125.1 g/H PUCCRT 3DC (disease control rating)” value (Puccinia triticina; low volume application, 125.1 g/H, 3 Day Curative, wheat brown rust) was “B (≤ 80)”.
In the case of `COc1ccnc(C(=O)NC(C)C(=O)OC(C)C(Oc2ccc3ccccc3c2)C(C)C)c1O` (centres unmarked) [Cmpd 398], the “SEPTTR 1DP disease control rating, HV activity” value (Zymoseptoria tritici; [3]) is reported as “D”, the “SEPTTR 3DC disease control rating, HV activity” value (Zymoseptoria tritici; [4]) is reported as “B (≤ 80)” and the “PUCCRT 1DP disease control rating, HV activity” value (Puccinia triticina; [5]) is reported as “A (> 80)”. For the same compound, the “PUCCRT 3DC disease control rating, HV activity” value (Puccinia triticina; [6]) was “B (≤ 80)”.
